From US9730938B2, “Bruton's tyrosine kinase inhibitor combinations and uses thereof” (Pharmacyclics LLC, priority 2014, dated 2017)

What was measured:
Jeko cells = test: 3-day CellTiter Glow combination study in Jeko cells with wild-type or mutant CARD11; format: cell-based; settings: FIG. 6
Protocol: (§1) Jeko cells, a MCL cell line, and OCI-Ly3, a DLBCL cell line, were used for this experiment.
(§2) In summary, 10,000 cells were plated into 96-well plates and treated with different concentrations of inhibitors. 3 days later, CellTiter Glow reagent was added into the wells and the luminescent signals were measured.

CARD11 / NF-κB pathway = test: Western blot analysis, Jeko cells containing CARD11 L225LI (mut10); format: cell-based; settings: FIG. 8
Protocol: The cell lysates were prepared from the cells which were treated with different concentrations of inhibitors for overnight incubation. Antibodies that correlate to the proteins of interest were used for detection.

OCI-LY-3 = test: Combined drug treatment cell viability, CellTiter-Glo assay (Example 1); format: cell-based; settings: 3 days
Protocol: (§3) DLBCL cells at either 1×10^4 cells or 2×10^4 cells were plated onto each well of a 96-W plate (Table 1).
(§4) The stock solutions for the IDH1 inhibitor AGI5198 and the MALT1 inhibitor MI-2 were each prepared at 50 mM concentration.
(§5) The 96-W plate was then incubated for 3 days. Cell viability was examined using a CellTiter-Glo assay.
(§6) A 40 μL of CellTiter-Glo reagent was added directly into each well of the 96-W plate. The plate was then shaken on a Shaker (Labsystem Wellmix) at speed 5 for 10-20 min at room temperature. Next, 100 μL of the mixed medium was transferred to a white, non-transparent, flat bottom 96-W plate for assaying. A Flexstation 3 luminometer was used for detecting and measuring the luminescent signals. Measurements were taken at room temperature.
(§7) In general, the combination is described as synergistic (CI<1), additive (CI=1), or antagonistic (CI>1). Synergism is further separated into very strong synergism (<0.1), strong synergism (0.1-0.3), synergism (0.3-0.7), moderate synergism (0.7-0.85), and slight synergism (0.85-0.9).

SU-DHL-2 = test: as above; format: cell-based; settings: 3 days
Protocol: as §3, §4, §5, §6, §7

TMD8 = test: as above; format: cell-based; settings: 3 days
Protocol: as §3, §4, §5, §6, §7

OCI-LY-10 = test: as above; format: cell-based; settings: 3 days
Protocol: as §3, §4, §5, §6, §7

U2932 = test: as above; format: cell-based; settings: 3 days
Protocol: as §3, §4, §5, §6, §7

OCI-Ly3 cells = test: 3-day CellTiter Glow combination study in OCI-Ly3 cells; format: cell-based; settings: in combination with ibrutinib; FIG. 7
Protocol: as §1, §2

ABC-DLBCL cells = settings: Ferch et al. 2009; Hailfinger et al. 2009; cited from earlier work
[1] = ibrutinib 0 nM, IDH1i 10 uM / MALT1i 5 uM alone
[2] = ibrutinib 0.0256 nM, IDH1i 10 uM / MALT1i 5 uM / medium alone
[3] = ibrutinib 0.128 nM, IDH1i 10 uM / MALT1i 5 uM / medium alone
[4] = ibrutinib 0.64 nM, IDH1i 10 uM / MALT1i 5 uM / medium alone
[5] = ibrutinib 3.2 nM, IDH1i 10 uM / MALT1i 5 uM / medium alone
[6] = ibrutinib 16 nM, IDH1i 10 uM / MALT1i 5 uM / medium alone
[7] = ibrutinib 80 nM, IDH1i 10 uM / MALT1i 5 uM / medium alone
[8] = ibrutinib 400 nM, IDH1i 10 uM / MALT1i 5 uM / medium alone
[9] = ibrutinib 2000 nM, IDH1i 10 uM / MALT1i 5 uM / medium alone
[10] = ibrutinib 10000 nM, IDH1i 10 uM / MALT1i 5 uM / medium alone
[11] = ibrutinib 0 nM, IDH1i 10 uM / MALT1i 200 nM alone
[12] = ibrutinib 0.0256 nM, IDH1i 10 uM / MALT1i 200 nM / medium alone
[13] = ibrutinib 0.128 nM, IDH1i 10 uM / MALT1i 200 nM / medium alone
[14] = ibrutinib 0.64 nM, IDH1i 10 uM / MALT1i 200 nM / medium alone
[15] = ibrutinib 3.2 nM, IDH1i 10 uM / MALT1i 200 nM / medium alone
[16] = ibrutinib 16 nM, IDH1i 10 uM / MALT1i 200 nM / medium alone
[17] = ibrutinib 80 nM, IDH1i 10 uM / MALT1i 200 nM / medium alone
[18] = ibrutinib 400 nM, IDH1i 10 uM / MALT1i 200 nM / medium alone
[19] = ibrutinib 2000 nM, IDH1i 10 uM / MALT1i 200 nM / medium alone
[20] = ibrutinib 10000 nM, IDH1i 10 uM / MALT1i 200 nM / medium alone

With COCCOc1nc(-c2ccc(Cl)c(Cl)c2)n(-c2ccc(NC(=O)CCl)cc2)n1 [MI-2] the “sensitization of Jeko cells containing the mutant CARD11 to ibrutinib treatment” value (Jeko cells) was “sensitized”, the “effect on NF-κB pathway together with ibrutinib” value (CARD11 / NF-κB pathway) was “in some instances synergize with ibrutinib to inhibit the NF-κB pathway” and the “effect on CARD11 protein” value (CARD11 / NF-κB pathway; overnight incubation) was “cause degradation of CARD11”. For the same compound, the “luminescence (CellTiter-Glo)” value (OCI-LY-3; [1]) was 23290.74, the “luminescence (CellTiter-Glo)” value (OCI-LY-3; [2]) was 25371.59 and the “luminescence (CellTiter-Glo)” value (OCI-LY-3; [3]) was 26368.71. For the same compound, the “luminescence (CellTiter-Glo)” value (OCI-LY-3; [4]) was 24778.56, the “luminescence (CellTiter-Glo)” value (OCI-LY-3; [5]) was 26610.12 and the “luminescence (CellTiter-Glo)” value (OCI-LY-3; [6]) was 27654.48. For the same compound, the “luminescence (CellTiter-Glo)” value (OCI-LY-3; [7]) was 27617.74, the “luminescence (CellTiter-Glo)” value (OCI-LY-3; [8]) was 25227.27 and the “luminescence (CellTiter-Glo)” value (OCI-LY-3; [9]) was 26843.66. The “luminescence (CellTiter-Glo)” value (OCI-LY-3; [10]) was 23784.06, the “luminescence (CellTiter-Glo)” value (SU-DHL-2; [11]) was 131429.7 and the “luminescence (CellTiter-Glo)” value (SU-DHL-2; [12]) was 127667.9. For the same compound, the “luminescence (CellTiter-Glo)” value (SU-DHL-2; [13]) was 145168.7, the “luminescence (CellTiter-Glo)” value (SU-DHL-2; [14]) was 148058.4 and the “luminescence (CellTiter-Glo)” value (SU-DHL-2; [15]) was 156036.5. The “luminescence (CellTiter-Glo)” value (SU-DHL-2; [16]) was 153735.3, the “luminescence (CellTiter-Glo)” value (SU-DHL-2; [17]) was 154662.6 and the “luminescence (CellTiter-Glo)” value (SU-DHL-2; [18]) was 152400.8. The “luminescence (CellTiter-Glo)” value (SU-DHL-2; [19]) was 151552.3, the “luminescence (CellTiter-Glo)” value (SU-DHL-2; [20]) was 61725.8 and the “luminescence (CellTiter-Glo)” value (TMD8; ibrutinib 0 nM, IDH1i 10 uM / MALT1i 100 nM alone) was 71955.73. The “luminescence (CellTiter-Glo)” value (TMD8; ibrutinib 0.0256 nM, IDH1i 10 uM / MALT1i 100 nM / medium alone) was 26784.40, the “luminescence (CellTiter-Glo)” value (TMD8; ibrutinib 0.128 nM, IDH1i 10 uM / MALT1i 100 nM / medium alone) was 23958.89 and the “luminescence (CellTiter-Glo)” value (TMD8; ibrutinib 0.64 nM, IDH1i 10 uM / MALT1i 100 nM / medium alone) was 25405.91. For the same compound, the “luminescence (CellTiter-Glo)” value (TMD8; ibrutinib 3.2 nM, IDH1i 10 uM / MALT1i 100 nM / medium alone) was 24014.24, the “luminescence (CellTiter-Glo)” value (TMD8; ibrutinib 16 nM, IDH1i 10 uM / MALT1i 100 nM / medium alone) was 22888.78 and the “luminescence (CellTiter-Glo)” value (TMD8; ibrutinib 80 nM, IDH1i 10 uM / MALT1i 100 nM / medium alone) was 22045.34. For the same compound, the “luminescence (CellTiter-Glo)” value (TMD8; ibrutinib 400 nM, IDH1i 10 uM / MALT1i 100 nM / medium alone) was 21591.99, the “luminescence (CellTiter-Glo)” value (TMD8; ibrutinib 2000 nM, IDH1i 10 uM / MALT1i 100 nM / medium alone) was 21278.34 and the “luminescence (CellTiter-Glo)” value (TMD8; ibrutinib 10000 nM, IDH1i 10 uM / MALT1i 100 nM / medium alone) was 9754.88. The “luminescence (CellTiter-Glo)” value (OCI-LY-10; [1]) was 19317.19, the “luminescence (CellTiter-Glo)” value (OCI-LY-10; [2]) was 21817.96 and the “luminescence (CellTiter-Glo)” value (OCI-LY-10; [3]) was 17802.53. For the same compound, the “luminescence (CellTiter-Glo)” value (OCI-LY-10; [4]) was 16971.57, the “luminescence (CellTiter-Glo)” value (OCI-LY-10; [5]) was 13413.69 and the “luminescence (CellTiter-Glo)” value (OCI-LY-10; [6]) was 7749.49. The “luminescence (CellTiter-Glo)” value (OCI-LY-10; [7]) was 9592.85, the “luminescence (CellTiter-Glo)” value (OCI-LY-10; [8]) was 9064.30 and the “luminescence (CellTiter-Glo)” value (OCI-LY-10; [9]) was 10110.89. The “luminescence (CellTiter-Glo)” value (OCI-LY-10; [10]) was 9734.85, the “luminescence (CellTiter-Glo)” value (U2932; [11]) was 54720.82 and the “luminescence (CellTiter-Glo)” value (U2932; [12]) was 48183.41. For the same compound, the “luminescence (CellTiter-Glo)” value (U2932; [13]) was 46995.03, the “luminescence (CellTiter-Glo)” value (U2932; [14]) was 49419.22 and the “luminescence (CellTiter-Glo)” value (U2932; [15]) was 48821.08. For the same compound, the “luminescence (CellTiter-Glo)” value (U2932; [16]) was 44565.57, the “luminescence (CellTiter-Glo)” value (U2932; [17]) was 47234.82 and the “luminescence (CellTiter-Glo)” value (U2932; [18]) was 41263.93. For the same compound, the “luminescence (CellTiter-Glo)” value (U2932; [19]) was 45695.98 and the “luminescence (CellTiter-Glo)” value (U2932; [20]) was 31838.57.

For CC(C)C[C@H](NC(=O)[C@H](CCc1ccccc1)NC(=O)CN1CCOCC1)C(=O)N[C@@H](Cc1ccccc1)C(=O)N[C@@H](CC(C)C)C(=O)[C@@]1(C)CO1 [Carfilzomib], the “sensitization of OCI-Ly3 cells” value (OCI-Ly3 cells) was “sensitized” and the “sensitization of Jeko cells containing the mutant CARD11 to ibrutinib treatment” value (Jeko cells) was “sensitized”.

For Z-VRPR-FMK, the “effect on ABC-DLBCL cells” value (ABC-DLBCL cells) is given as “exerts toxic effects”.
